# Results as given in patent US20070049564A1 (Wyeth, priority 2005, published 2007).
# Like-named read-outs stand apart in the source and are kept apart here.
# How the values were obtained:
# E. coli GC 2236 = experiment: MIC, broth microdilution; conditions: Escherichia coli, GC2236, E. coli GC 2236
# E. coli GC 2232 = experiment: MIC, broth microdilution; conditions: Escherichia coli, GC2232, E. coli GC 2232
# E. coli GC 2234 = experiment: MIC, broth microdilution; conditions: Escherichia coli, GC2234, E. coli GC 2234
# E. coli GC 2271 = experiment: MIC, broth microdilution; conditions: Escherichia coli, GC2271, E. coli GC 2271
# E. coli GC 2272 = experiment: MIC, broth microdilution; conditions: Escherichia coli, GC2272, E. coli GC 2272
# E. coli GC 4559 = experiment: MIC, broth microdilution; conditions: Escherichia coli, GC4559, E. coli GC 4559
# Experimental: (§1) Antimicrobial susceptibility testing. The in vitro activities of the antibiotics are determined by the broth microdilution method as recommended by the National Committee for Clinical Laboratory Standards (NCCLS) (1). Mueller-Hinton II broth (MHBII)(BBL Cockeysville, Md.) is the medium employed in the testing procedures. Microtiter plates containing serial dilutions of each antimicrobial agent are inoculated with each organism to yield the appropriate density (10^5 CFU/ml) in a 100 μl final volume. The plates are incubated for 18-22 hours at 35° C. in ambient air.
# (§2) Representative compounds were first incubated in mouse serum for an hour prior to the in vitro testing against a panel of selected gram-positive and gram-negative bacteria strains. All compounds were also pre-incubated in water for an hour prior to testing as control. Representative compounds of Formula I were incubated in human serum prior to MIC determination.
# E. coli GC 3226 = experiment: MIC, broth microdilution; conditions: Escherichia coli, GC3226, E. coli GC 3226
# Experimental: as §1, §2
# E. coli GC 2203 = experiment: MIC, broth microdilution; conditions: Escherichia coli, GC2203, E. coli GC 2203
# P. aeruginosa GC 2214 = experiment: MIC, broth microdilution; conditions: Pseudomonas aeruginosa, GC2214, P. aeruginosa GC 2214
# S. aureus GC 1131 = experiment: MIC, broth microdilution; conditions: Staphylococcus aureus, GC1131, S. aureus GC 1131
# S. aureus GC 6335 = experiment: MIC, broth microdilution; conditions: Staphylococcus aureus, GC6335, S. aureus GC 6335
# S. epidermidis GC 4935 = experiment: MIC, broth microdilution; conditions: Staphylococcus epidermidis, GC4935, S. epidermidis GC 4935
# E. faecalis GC 4555 = experiment: MIC, broth microdilution; conditions: Enterococcus faecalis, GC4555, E. faecalis GC 4555
# E. faecalis GC 2265 = experiment: MIC, broth microdilution; conditions: Enterococcus faecalis, GC2265, E. faecalis GC 2265
# Experimental: as §1
# Representative compounds were first incubated in mouse serum for an hour prior to the in vitro testing against a panel of selected gram-positive and gram-negative bacteria strains. All compounds were also pre-incubated in water for an hour prior to testing as control.
# E. faecalis GC 2267 = experiment: MIC, broth microdilution; conditions: Enterococcus faecalis, GC2267, E. faecalis GC 2267
# S. pneumoniae* GC 4465 = experiment: MIC, broth microdilution; conditions: Streptococcus pneumoniae, S. pneumoniae* GC 4465
# S. pneumoniae+ GC 4465 = experiment: MIC, broth microdilution; conditions: Streptococcus pneumoniae, S. pneumoniae+ GC 4465
# S. pyogenes GC 4563 = experiment: MIC, broth microdilution; conditions: Streptococcus pyogenes, GC4563, S. pyogenes GC 4563
# S. agalactiae GC 4564 = experiment: MIC, broth microdilution
# Staph. aureus Smith = experiment: In vivo activity (oral, iv; ED50) against Staph. aureus Smith in mice
# Experimental: Representative examples of compounds of Formula I were tested for the oral efficacy using S. aureus Smith in mice.
# [1] = Staphylococcus aureus, in Mus musculus, po, read-out: ED50 Staph Smith SOD
# [2] = iv, read-out: ED50 Staph Smith SIV
# [3] = Streptococcus agalactiae, GC4564, S. agalactiae GC 4564, Mouse Serum pre-incubation
# [4] = Streptococcus agalactiae, GC4564, S. agalactiae GC 4564, Water pre-incubation
smiles,measurement,setting,value
"CCCCN(CC(=O)Nc1cc(N(C)C)c2c(c1O)C(=O)C1=C(O)[C@]3(O)C(=O)C(C(N)=O)=C(O)[C@@H](N(C)C)[C@@H]3C[C@@H]1C2)C(=O)OCOC(=O)Cc1ccccc1 [Example 12, ({[(2-{[(5aR,6aS,7S,10aS)-9-(aminocarbonyl)-4,7-bis(dimethylamino)-1,8,10a,11-tetrahydroxy-10,12-dioxo-5,5a,6,6a,7,10,10a,12-octahydrotetracen-2-yl]amino}-2-oxoethyl)(butyl)amino]carbonyl}oxy)methyl phenylacetate]",MIC,E. coli GC 2236; Mouse Serum pre-incubation,1 µg/mL
same,MIC,E. coli GC 2236; Water pre-incubation,16 µg/mL
same,MIC,E. coli GC 2232; Mouse Serum pre-incubation,0.5 µg/mL
same,MIC,E. coli GC 2232; Water pre-incubation,32 µg/mL
same,MIC,E. coli GC 2234; Mouse Serum pre-incubation,1 µg/mL
same,MIC,E. coli GC 2234; Water pre-incubation,16 µg/mL
same,MIC,E. coli GC 2271; Mouse Serum pre-incubation,0.5 µg/mL
same,MIC,E. coli GC 2271; Water pre-incubation,16 µg/mL
same,MIC,E. coli GC 2272; Mouse Serum pre-incubation,1 µg/mL
same,MIC,E. coli GC 2272; Water pre-incubation,16 µg/mL
same,MIC,E. coli GC 4559; Mouse Serum pre-incubation,1 µg/mL
same,MIC,E. coli GC 4559; Water pre-incubation,64 µg/mL
same,MIC,E. coli GC 3226; Mouse Serum pre-incubation,2 µg/mL
same,MIC,E. coli GC 3226; Water pre-incubation,64 µg/mL
same,MIC,E. coli GC 2203; Mouse Serum pre-incubation,1 µg/mL
same,MIC,E. coli GC 2203; Water pre-incubation,32 µg/mL
same,MIC,P. aeruginosa GC 2214; Mouse Serum pre-incubation,32 µg/mL
same,MIC,P. aeruginosa GC 2214; Water pre-incubation,> 64 µg/mL
same,MIC,S. aureus GC 1131; Mouse Serum pre-incubation,1 µg/mL
same,MIC,S. aureus GC 1131; Water pre-incubation,2 µg/mL
same,MIC,S. aureus GC 6335; Mouse Serum pre-incubation,1 µg/mL
same,MIC,S. aureus GC 6335; Water pre-incubation,2 µg/mL
same,MIC,S. epidermidis GC 4935; Mouse Serum pre-incubation,4 µg/mL
same,MIC,S. epidermidis GC 4935; Water pre-incubation,8 µg/mL
same,MIC,E. faecalis GC 4555; Mouse Serum pre-incubation,0.5 µg/mL
same,MIC,E. faecalis GC 4555; Water pre-incubation,4 µg/mL
same,MIC,E. faecalis GC 2265; Mouse Serum pre-incubation,2 µg/mL
same,MIC,E. faecalis GC 2265; Water pre-incubation,8 µg/mL
same,MIC,E. faecalis GC 2267; Mouse Serum pre-incubation,2 µg/mL
same,MIC,E. faecalis GC 2267; Water pre-incubation,8 µg/mL
same,MIC,S. pneumoniae* GC 4465; Mouse Serum pre-incubation,< 0.06 µg/mL
same,MIC,S. pneumoniae* GC 4465; Water pre-incubation,0.12 µg/mL
same,MIC,S. pneumoniae+ GC 4465; Mouse Serum pre-incubation,4 µg/mL
same,MIC,S. pneumoniae+ GC 4465; Water pre-incubation,8 µg/mL
same,MIC,S. pyogenes GC 4563; Mouse Serum pre-incubation,0.12 µg/mL
same,MIC,S. pyogenes GC 4563; Water pre-incubation,0.25 µg/mL
same,MIC,"S. agalactiae GC 4564; S. agalactiae GC 4564, Water pre-incubation",0.25 UG/ML
same,MIC,"S. agalactiae GC 4564; Streptococcus agalactiae, GC4564",0.25 µg/mL
same,ED50,Staph. aureus Smith; [1],15 mg/kg
same,ED50,Staph. aureus Smith; [2],1 mg/kg
"CCCCN(CC(=O)Nc1cc(N(C)C)c2c(c1O)C(=O)C1=C(O)[C@]3(O)C(=O)C(C(N)=O)=C(O)[C@@H](N(C)C)[C@@H]3C[C@@H]1C2)C(=O)OCOC(=O)C(C)(C)C [Example 13, ({[(2-{[(5aR,6aS,7S,10aS)-9-(aminocarbonyl)-4,7-bis(dimethylamino)-1,8,10a,11-tetrahydroxy-10,12-dioxo-5,5a,6,6a,7,10,10a,12-octahydrotetracen-2-yl]amino}-2-oxoethyl)(butyl)amino]carbonyl}oxy)methyl pivalate]",MIC,E. coli GC 2236; Mouse Serum pre-incubation,2 µg/mL
same,MIC,E. coli GC 2236; Water pre-incubation,8 µg/mL
same,MIC,E. coli GC 2232; Mouse Serum pre-incubation,2 µg/mL
same,MIC,E. coli GC 2232; Water pre-incubation,8 µg/mL
same,MIC,E. coli GC 2234; Mouse Serum pre-incubation,1 µg/mL
same,MIC,E. coli GC 2234; Water pre-incubation,8 µg/mL
same,MIC,E. coli GC 2271; Mouse Serum pre-incubation,2 µg/mL
same,MIC,E. coli GC 2271; Water pre-incubation,8 µg/mL
same,MIC,E. coli GC 2272; Mouse Serum pre-incubation,2 µg/mL
same,MIC,E. coli GC 2272; Water pre-incubation,8 µg/mL
same,MIC,E. coli GC 4559; Mouse Serum pre-incubation,4 µg/mL
same,MIC,E. coli GC 4559; Water pre-incubation,16 µg/mL
same,MIC,E. coli GC 3226; Mouse Serum pre-incubation,2 µg/mL
same,MIC,E. coli GC 3226; Water pre-incubation,16 µg/mL
same,MIC,E. coli GC 2203; Mouse Serum pre-incubation,2 µg/mL
same,MIC,E. coli GC 2203; Water pre-incubation,8 µg/mL
same,MIC,P. aeruginosa GC 2214; Mouse Serum pre-incubation,32 µg/mL
same,MIC,P. aeruginosa GC 2214; Water pre-incubation,> 64 µg/mL
same,MIC,S. aureus GC 1131; Mouse Serum pre-incubation,2 µg/mL
same,MIC,S. aureus GC 1131; Water pre-incubation,2 µg/mL
same,MIC,S. aureus GC 6335; Mouse Serum pre-incubation,2 µg/mL
same,MIC,S. aureus GC 6335; Water pre-incubation,4 µg/mL
same,MIC,S. epidermidis GC 4935; Mouse Serum pre-incubation,4 µg/mL
same,MIC,S. epidermidis GC 4935; Water pre-incubation,8 µg/mL
same,MIC,E. faecalis GC 4555; Mouse Serum pre-incubation,2 µg/mL
same,MIC,E. faecalis GC 4555; Water pre-incubation,4 µg/mL
same,MIC,E. faecalis GC 2265; Mouse Serum pre-incubation,4 µg/mL
same,MIC,E. faecalis GC 2265; Water pre-incubation,8 µg/mL
same,MIC,E. faecalis GC 2267; Mouse Serum pre-incubation,4 µg/mL
same,MIC,E. faecalis GC 2267; Water pre-incubation,8 µg/mL
same,MIC,S. pneumoniae* GC 4465; Mouse Serum pre-incubation,0.5 µg/mL
same,MIC,S. pneumoniae* GC 4465; Water pre-incubation,0.5 µg/mL
same,MIC,S. pneumoniae+ GC 4465; Mouse Serum pre-incubation,8 µg/mL
same,MIC,S. pneumoniae+ GC 4465; Water pre-incubation,8 µg/mL
same,MIC,S. pyogenes GC 4563; Mouse Serum pre-incubation,0.5 µg/mL
same,MIC,S. pyogenes GC 4563; Water pre-incubation,1 µg/mL
same,MIC,S. agalactiae GC 4564; [3],1 µg/mL
same,MIC,S. agalactiae GC 4564; [4],2 µg/mL
same,ED50,Staph. aureus Smith; [1],11 mg/kg
same,ED50,Staph. aureus Smith; [2],0.82 mg/kg
"CCCN(CC(=O)Nc1cc(N(C)C)c2c(c1O)C(=O)C1=C(O)[C@]3(O)C(=O)C(C(N)=O)=C(O)[C@@H](N(C)C)[C@@H]3C[C@@H]1C2)C(=O)OCc1ccccc1 [Example 14, benzyl 2-{[(5aR,6aS,7S,10aS)-9-(aminocarbonyl)-4,7-bis(dimethylamino)-1,8,10a,11-tetrahydroxy-10,12-dioxo-5,5a,6,6a,7,10,10a,12-octahydrotetracen-2-yl]amino}-2-oxoethyl(propyl)carbamate]",MIC,E. coli GC 2236; Mouse Serum pre-incubation,> 64 µg/mL
same,MIC,E. coli GC 2236; Water pre-incubation,> 64 µg/mL
same,MIC,E. coli GC 2232; Mouse Serum pre-incubation,> 64 µg/mL
same,MIC,E. coli GC 2232; Water pre-incubation,> 64 µg/mL
same,MIC,E. coli GC 2234; Mouse Serum pre-incubation,> 64 µg/mL
same,MIC,E. coli GC 2234; Water pre-incubation,> 64 µg/mL
same,MIC,E. coli GC 2271; Mouse Serum pre-incubation,> 64 µg/mL
same,MIC,E. coli GC 2271; Water pre-incubation,> 64 µg/mL
same,MIC,E. coli GC 2272; Mouse Serum pre-incubation,> 64 µg/mL
same,MIC,E. coli GC 2272; Water pre-incubation,> 64 µg/mL
same,MIC,E. coli GC 4559; Mouse Serum pre-incubation,> 64 µg/mL
same,MIC,E. coli GC 4559; Water pre-incubation,> 64 µg/mL
same,MIC,E. coli GC 3226; Mouse Serum pre-incubation,> 64 µg/mL
same,MIC,E. coli GC 3226; Water pre-incubation,> 64 µg/mL
same,MIC,E. coli GC 2203; Mouse Serum pre-incubation,32 µg/mL
same,MIC,E. coli GC 2203; Water pre-incubation,64 µg/mL
same,MIC,P. aeruginosa GC 2214; Mouse Serum pre-incubation,> 64 µg/mL
same,MIC,P. aeruginosa GC 2214; Water pre-incubation,> 64 µg/mL
same,MIC,S. aureus GC 1131; Mouse Serum pre-incubation,1 µg/mL
same,MIC,S. aureus GC 1131; Water pre-incubation,2 µg/mL
same,MIC,S. aureus GC 6335; Mouse Serum pre-incubation,1 µg/mL
same,MIC,S. aureus GC 6335; Water pre-incubation,4 µg/mL
same,MIC,S. epidermidis GC 4935; Mouse Serum pre-incubation,8 µg/mL
same,MIC,S. epidermidis GC 4935; Water pre-incubation,8 µg/mL
same,MIC,E. faecalis GC 4555; Mouse Serum pre-incubation,2 µg/mL
same,MIC,E. faecalis GC 4555; Water pre-incubation,8 µg/mL
same,MIC,E. faecalis GC 2265; Mouse Serum pre-incubation,2 µg/mL
same,MIC,E. faecalis GC 2265; Water pre-incubation,8 µg/mL
same,MIC,E. faecalis GC 2267; Mouse Serum pre-incubation,2 µg/mL
same,MIC,E. faecalis GC 2267; Water pre-incubation,8 µg/mL
same,MIC,S. pneumoniae* GC 4465; Mouse Serum pre-incubation,2 µg/mL
same,MIC,S. pneumoniae* GC 4465; Water pre-incubation,4 µg/mL
same,MIC,S. pneumoniae+ GC 4465; Mouse Serum pre-incubation,4 µg/mL
same,MIC,S. pneumoniae+ GC 4465; Water pre-incubation,4 µg/mL
same,MIC,S. pyogenes GC 4563; Mouse Serum pre-incubation,2 µg/mL
same,MIC,S. pyogenes GC 4563; Water pre-incubation,4 µg/mL
same,MIC,S. agalactiae GC 4564; [3],16 µg/mL
same,MIC,S. agalactiae GC 4564; [4],16 µg/mL
same,ED50,Staph. aureus Smith; [1],> 32 mg/kg
same,ED50,Staph. aureus Smith; [2],> 2 mg/kg
